Reference: the supplement of paper PMC10307832

How the values were obtained:
Experiment in all cases: relative viability (nuclei count vs DMSO), 5 days (fraction); higher = more cells survive
AZD5582 + Navitoclax = compound: C[C@@H](C(=O)N[C@@H](C1CCCCC1)C(=O)N2CCC[C@H]2C(=O)N[C@@H]3[C@@H](CC4=CC=CC=C34)OCC#CC#CCO[C@@H]5CC6=CC=CC=C6[C@@H]5NC(=O)[C@@H]7CCCN7C(=O)[C@H](C8CCCCC8)NC(=O)[C@H](C)NC)NC [AZD5582] + CC1(C)CCC(c2ccc(Cl)cc2)=C(CN2CCN(c3ccc(C(=O)NS(=O)(=O)c4ccc(N[C@H](CCN5CCOCC5)CSc5ccccc5)c(S(=O)(=O)C(F)(F)F)c4)cc3)CC2)C1 [Navitoclax] (partner 0.5 µM)
Procedure, shortened: (§1)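 The day after seeding in 1536-well plates, lung cancer cell lines were treated by pin tool with a single drug, or with a fixed anchor-drug dose together with five library-drug doses (not always all listed) in √10 steps. After 5 days, a combined fix-and-stain solution (final 0.05% Triton X-100, 1% formaldehyde, 1 ug/ml Hoechst) was added. Nuclei counted on 4× images gave relative viability as treated counts over vehicle counts, reported as the median of duplicate plates.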

AZD5582 + Dasatinib = compound: C[C@@H](C(=O)N[C@@H](C1CCCCC1)C(=O)N2CCC[C@H]2C(=O)N[C@@H]3[C@@H](CC4=CC=CC=C34)OCC#CC#CCO[C@@H]5CC6=CC=CC=C6[C@@H]5NC(=O)[C@@H]7CCCN7C(=O)[C@H](C8CCCCC8)NC(=O)[C@H](C)NC)NC [AZD5582] + Cc1nc(Nc2ncc(C(=O)Nc3c(C)cccc3Cl)s2)cc(N2CCN(CCO)CC2)n1 [Dasatinib] (partner 0.075 µM)
Procedure, shortened: as §1

[1] = compound: Cn1nnc2c(C(N)=O)ncn2c1=O [Temozolomide] + Cc1cc(Nc2cc(N3CCN(C)CC3)nc(Sc3ccc(NC(=O)C4CC4)cc3)n2)n[nH]1 [Tozasertib] (partner 0.1 µM)
Procedure, shortened: as §1

[2] = compound: Cn1nnc2c(C(N)=O)ncn2c1=O [Temozolomide] + Nc1nc2[nH]cc(CCc3ccc(C(=O)N[C@@H](CCC(=O)O)C(=O)O)cc3)c2c(=O)[nH]1 [Pemetrexed] (partner 0.2 µM)
Procedure, shortened: as §1

Cell Line	relative viability (AZD5582 + Navitoclax; first compound 0.001581 µM)	relative viability (AZD5582 + Navitoclax; first compound 0.005 µM)	relative viability (AZD5582 + Navitoclax; first compound 0.01581 µM)	relative viability (AZD5582 + Navitoclax; first compound 0.05 µM)	relative viability (AZD5582 + Dasatinib; first compound 0.001581 µM)	relative viability (AZD5582 + Dasatinib; first compound 0.005 µM)	relative viability (AZD5582 + Dasatinib; first compound 0.01581 µM)	relative viability (AZD5582 + Dasatinib; first compound 0.05 µM)	relative viability ([1]; first compound 0.2 µM)	relative viability ([1]; first compound 0.6325 µM)	relative viability ([1]; first compound 2 µM)	relative viability ([1]; first compound 6.325 µM)	relative viability ([1]; first compound 20 µM)	relative viability ([2]; first compound 0.2 µM)	relative viability ([2]; first compound 0.6325 µM)	relative viability ([2]; first compound 2 µM)	relative viability ([2]; first compound 6.325 µM)	relative viability ([2]; first compound 20 µM)
201T	1.21	1.23	1.12	1.31	0.557	0.577	0.541	0.589	1.01	0.888	0.987	0.943	0.914	0.346	0.345	0.398	0.339	0.316
A549	1.24	1.26	1.2	1.14														
A-427	0.779	0.831	0.896	0.756	0.593	0.638	0.683	0.384	0.201	0.206	0.219	0.152	0.157	1.01	0.919	0.957	0.783	0.549
ABC-1					0.344	0.611		0.632	0.158	0.138	0.196	0.164	0.218					
BEN	0.0668	0.0512	0.0565	0.0544	0.329	0.344	0.289	0.304	0.465	0.5	0.415	0.526	0.436	0.801	0.92	0.936	0.741	0.841
CAL-12T		0.531	1.26	0.854	0.261	0.333	0.363	0.349	0.335	0.339	0.347	0.34	0.382	1.34	1.12	1.1	1.16	1.39
COR-L23	0.963	1.07	1	1.22	0.432	0.647	0.477	0.53	0.2	0.213	0.227	0.206	0.198	0.188	0.211	0.19	0.184	0.217
COR-L 105	0.8	0.657	0.746	0.813	0.374	0.455	0.278	0.258	0.342	0.386	0.453	0.378	0.371	1.12	1.07	1.02	1.06	1.06
Calu-6	0.718	0.635	0.871	0.467														
ChaGo-K-1	0.977	1.18	0.797	0.994	0.579	0.669	0.596	0.488	0.263	0.209	0.3	0.191	0.226	0.258	0.256	0.263	0.257	0.246
EBC-1	0.394	0.408	0.4	0.373														
EKVX	0.878	1.01	0.798	0.959	0.502	0.615		0.627	0.256	0.395	0.385	0.335	0.42		0.38	0.352	0.388	0.305
EMC-BAC-2	1.07	0.984	1.15	0.62	0.332	0.327	0.31	0.241	0.326	0.309	0.274	0.255	0.314	0.468	0.445	0.485	0.415	0.509
EPLC-272H	0.608	0.743	1.05	0.208	0.0652		0.305	0.0573	0.263	0.191	0.232	0.28	0.252	0.321	0.322	0.356	0.247	0.317
H3255	0.479	0.59	0.375	0.213	0.329	0.404	0.294	0.283		0.534	0.613	0.532	0.17		0.544	0.59	0.543	0.336
HARA	1.11	1.07	1.14	1.12	0.26	0.299	0.294	0.124	0.0933	0.112	0.107	0.11	0.108	0.203	0.228	0.269	0.2	0.273
HCC-15	0.629	0.675	0.675	0.619	0.53	0.617	0.605	0.624	0.522	0.412	0.5	0.384	0.599	0.24	0.221	0.227	0.207	0.228
HCC-44	0.919	0.692	1.01	0.581					0.795	0.953	1.06	0.848	0.996	0.688	0.669	0.699	0.707	0.653
HCC-78	0.69	0.948	0.775	0.617	0.489	0.392	0.375	0.374	0.282	0.487	0.497	0.493	0.425	0.896	0.921	0.927		0.958
HCC-366	1.05	0.925	0.998	1.07	0.614	0.658		0.647	0.097	0.0983	0.148	0.0779	0.15	0.143	0.17	0.188	0.165	0.155
